# Laboratory results published in patent US11229662B2, “Compositions and methods for the treatment of aberrant angiogenesis” (The Schepens Eye Research Institute, Inc., priority 2016, dated 2022).
# “Also recorded” adds a separate entry of the source.
# Columns and labels:
# HRMEC [1] = assay: Ki67 proliferation assay; assay type: cell-based, human
# Procedure: FVMs and cells were incubated with mouse anti-RUNX1 (Santa Cruz) followed by biotinylated secondary antibody (Vector Laboratories), horseradish peroxidase (HRP)-labeled avidin (PerkinElmer), tyramide signal amplification (TSA, PerkinElmer), Vector Red chromogenic substrate (Vector Laboratories) and Gill no. 3 hematoxylin counterstain (Sigma-Aldrich). Immunofluorescent staining for CD31 (mouse anti-CD31; Dako) and Ki67 (rabbit anti-Ki67; Novus Biologicals) was performed as previously described (Kim L A, et al. (2015) Mol Vis 21:673-687). The number of Ki67 positive nuclei was averaged for three fields of view per sample at 20× magnification.
# HRMEC were probed for proliferation with the Ki67 marker as follows: cells were permeabilized with 0.5% Triton X-100 in PBS for 5 min, blocked with 5% goat serum in PBS for 2 h at room temperature, incubated with primary antibody overnight at 4° C. (rabbit anti-Ki67 1:50; Novus Biologicals), and incubated with secondary for 2 h at room temperature (goat anti-rabbit Alexa Fluor 594 1:250; Life Technologies Corp.). Samples were imaged using an EVOS® imaging system. The number of Ki67 positive nuclei was averaged for three fields of view per sample at 20× magnification.
# RUNX1 protein = assay: Western blot of RUNX1 protein; assay type: cell-based, human; details: 72 hours
# Procedure: FIG. 13 is an image showing that a commercially available small molecule PIM3 inhibitor (PIM3 kinase inhibitor VII from EMD Millipore) reduced total RUNX1 protein levels in primary culture retinal endothelial cells in normal and high glucose conditions. Human microvascular retinal endothelial cells were cultured in EGM-2 supplemented with different concentrations of D-glucose for 72 hours in the presence of PIM3 inhibitor (PIM3 kinase inhibitor VII from EMD Millipore, Cat No. 526526, 0.05 μM) or vehicle (DMSO). After harvest, proteins were extracted using RIPA buffer and analyzed by western blot. RUNX1 was detected using antibodies from Santacruz (sc-365644). β-actin was used as a loading control.
# FIG. 19 is set of images showing that gamma-secretase inhibition using Compound E small molecule (100 nM) reduces the expression of RUNX1 in primary culture human microvascular endothelial cells. […]
# Western Blot Analysis: Cells were lysed using RIPA buffer (Cell Signaling Technology (CST)). […] Immunoreactive bands were visualized using the Odyssey Infrared Imaging System and band intensities normalized to β-actin were quantified using Image Studio version 2.1 (LI-COR).
# RUNX1 = assay: qRT-PCR of RUNX1 expression; assay type: cell-based, human
# Procedure: (§1) FVMs were collected and CD31+ cells were isolated as previously described [Kim L A, et al. (2015) Mol Vis 21:673-687]. RNA-sequencing was performed using an Illumina HiSeq 2000 (Illumina Inc.), aligned with TopHat (Trapnell et al. (2009) Bioinformatics 25(9):1105-1111], and analyzed using Partek Flow, CuffLinks, EdgeR, and DESeq2. A mixed model ANOVA was used with a threshold false discovery rate (FDR) of <0.05 and fold change >±2 for significance. Gene Ontology was determined using the Database for Annotation, Visualization, and Integrated Discovery (DAVID). […] FVMs and cells were immunostained with standard protocols for paraffin embedded samples.
# (§2) siRNA ([…]) (Integrated DNA Technologies; sequences in Table 4) was transfected for 6-8 h using DharmaFECT 1 (GE Life Sciences—Dharmacon) in Opti-MEM (Life Technologies).
# (§3) RNA was extracted using RNeasy Mini Kits (Qiagen). Primers were purchased from Integrated DNA Technologies for 200 candidate genes (Table 4). Genes were excluded from further analysis if there was no amplification or amplification was outside the linear range. […] Fluorescent intensities were normalized to spike-in controls (ERCC RNA Spike-In Mix; Life Technologies), HPRT1, and B2M.
# HES1 = assay: qRT-PCR of HES1 expression; assay type: cell-based, human; details: 100 nM; 72 hours; 5 mM and 30 mM D-glucose; vs DMSO
# Procedure: FIG. 18 is a graph showing that gamma-secretase inhibition using Compound E small molecule (100 nM) reduced the expression of HES1, a canonical downstream target for Notch activity and RUNX1 in primary culture human microvascular endothelial cells. Reduction of HES1 and RUNX1 expression was effective under normal glucose (5 mM D-glucose and high glucose 30 mM D-glucose). Cells were incubated with Compound E or DMSO vehicle control in different glucose concentrations for 72 hours before harvest followed by qRT-PCR for each gene. HPRT1 expression was used as control.
# as §3
# C57BL/6J mice with OIR = assay: Oxygen-induced retinopathy (OIR) mouse model, retinal flat mounts; assay type: in vivo; details: P17
# Procedure: OIR was induced in wild-type C57BL/6J mice as previously described (Smith L E et al., (1994) Invest Ophthalmol Vis Sci 35(1):101-111). Intravitreal injections with 1 μL of 75 μM Ro5-3335 RUNX1 inhibitor or DMSO were performed on left eyes only at P13 and P15 under ketamine/xylazine anesthesia. Pups were euthanized at P17 and eyes were collected, fixed in 4% paraformaldehyde, and used for retinal flat mounts (nvehicle=7; nRo5-3335=9). Avascular and neovascular areas were quantified using Photoshop as previously described (Connor H M et al., (2009) Nature Protocols 4(11):1565-1573).
# HRMEC [2] = assay: Tube forming assay; assay type: cell-based, human
# Procedure: HRMEC were treated overnight with 75 μM Ro5-3335 or DMSO before plating 20000 cells onto wells pre-coated with basement membrane extract (Trevigen). Cells were imaged six h after plating and tube formation was quantified using the Angiogenesis Analyzer plugin for ImageJ.
# [3] = HIV treatment trial, Haubrich et al. (1995); cited from earlier work
# RUNX2 = assay: qRT-PCR of RUNX2 expression; assay type: cell-based, human; details: RUNX1 siRNA; 48 hours post-transfection
# Procedure: as §2, §3
# IGFBP3 = assay: qRT-PCR of IGFBP3 expression; assay type: cell-based, human; details: RUNX1 siRNA knockdown
# Procedure: as §2, §3
# HRMEC were transfected with pCMV5-AML1c (Addgene Plasmid #12426) (the plasmid contains the sequence of RUNX1 encoding 480 amino acids; in the sequences listed herein this corresponds to RUNX1g) or pCMV5 empty vector using the HCAEC Nucleofector kit (VPB-1001; Program S-005) following manufacturer's optimized protocol.
# RUNX3 = assay: qRT-PCR of RUNX3 expression; assay type: cell-based, human; details: RUNX1 siRNA; 48 hours post-transfection
# Procedure: as §2, §3
# HRMEC [4] = assay: Scratch-wound migration assay; assay type: cell-based, human; details: for wound closure (scratch assay): siRNA knockdown of RUNX1, 0-12 h
# Procedure: as §1
# Migration was assessed with the scratch-wound assay (Liang C C et al. (2007) Nature Protocols 2(2):329-333). One scratch was generated per well and imaged on an EVOS® imaging system every three hours for 12 h. Images were analyzed with the TScratch Matlab module (Geback et al. (2009) Biotechniques 46(4):265-274).
# [5] = intravitreal 75 μM at P13 and P15, vs vehicle
# [6] = HRMEC treated overnight with 75 μM Ro5-3335, imaged 6 h after plating, vs DMSO
compound,measurement,setting,value
N[C@@H]1CCCN(c2c(/C=C3\SC(=O)NC3=O)cccc2-c2ccccc2)C1 [AZD1208],reduction in cell migration,"HRMEC [1]; treated 48 hours before proliferation assay, Ki67 marker, vs DMSO control",43%
C[C@H](NC(=O)Cc1cc(F)cc(F)c1)C(=O)N[C@H]1N=C(c2ccccc2)c2ccccc2N(C)C1=O [Compound E],RUNX1 expression (western blot),"RUNX1 protein; 100 nM, 5 mM and 30 mM D-glucose",reduces
same,RUNX1 expression (qRT-PCR),"RUNX1; 100 nM, 72 hours, 5 mM and 30 mM D-glucose, vs DMSO",reduced
same,HES1 expression,HES1,reduced
"CC/C(=N\NC(=O)c1ccnc(NCCCN2CCOCC2)c1)c1ccc(Cl)cc1O [PIM3 kinase inhibitor VII, N′-(1-(4-Chloro-2-hydroxyphenyl)propylidene)-2-((3-morpholinopropyl)amino)isonicotinohydrazide]",total RUNX1 protein levels,"RUNX1 protein; 0.05 μM, normal and high glucose, vs DMSO",reduced
O=C1CN=C(c2ccc[nH]2)c2cc(Cl)ccc2N1 [Ro5-3335],avascular area (extent of vaso-obliteration),C57BL/6J mice with OIR; [5],no significant change; also recorded: non-significant downward trend
same,neovascularization / neovascular tufts,C57BL/6J mice with OIR; [5],significant reduction
same,reduction in neovascularization,"C57BL/6J mice with OIR; intravitreal 1 μL of 75 μM at P13 and P15, vs vehicle treated eyes",50%
same,meshes reduction,HRMEC [2]; [6],46%
same,nodes reduction,HRMEC [2]; [6],35%
same,total tube length reduction,HRMEC [2]; [6],18%
same,tube forming capacity,"HRMEC [2]; overnight treatment, 6 h after plating, vs vehicle treated cells",reduced tube forming capacity
CNC1=Nc2ccc(Cl)cc2C(c2ccc[nH]2)=NC1 [Ro24-7429],safety in clinical trial,[3],safe
"RUNX1 siRNA: siRNA against human RUNX1, Integrated DNA Technologies; duplex hs.Ri.RUNX1.13.3 (SEQ ID NO: 247/248) (chain 1 CCUUUCAUGUUAAUCAAACAAGUGA; chain 2 UCACUUGUUUGAUUAACAUGAAAGGGA; listed as RNA, chemistry not fully specified)",RUNX2 RNA expression,RUNX2,did not significantly affect; also recorded: no significant changes
same,cell number and proliferative capacity (Ki67 staining),"HRMEC [1]; 48 h post transfection, vs transfection reagent alone or scramble siRNA",significant reduction
same,fewer Ki67 positive cells,HRMEC [1]; RUNX1 siRNA transfected EC vs controls,60%
same,increase in IGFBP3 mRNA expression,IGFBP3,330%
same,reduction of RUNX1 RNA expression,"RUNX1; RUNX1 siRNA, 48 hours post-transfection",60%
same,RUNX3 RNA expression,RUNX3,did not significantly affect; also recorded: no significant changes
same,decrease in wound closure rate,"HRMEC [4]; RUNX1 siRNA knockdown, monitored 12 h, vs controls",60%
same,wound closure (scratch assay),HRMEC [4],effectively inhibits wound closure
"siRNA-2: second RUNX1 siRNA; probably duplex HSC.RNAI.N001001890.12.1 (SEQ ID NO: 249/250) (chain 1 ACUAGAUGAUCAGACCAAGCCCGGG; chain 2 CCCGGGCUUGGUCUGAUCAUCUAGUUU; listed as RNA, chemistry not fully specified)",wound closure (scratch assay),HRMEC [4],functional inhibition
